Laboratory results: ChEMBL document CHEMBL1800040, “Quantitative structure-activity relationship study of phloroglucinol-terpene adducts as anti-leishmanial agents” (Bioorg Med Chem Lett, 2011)

System: Leishmania donovani
Assay: Antileishmanial activity against Leishmania donovani promastigotes
Format: functional, organism-based

SMILES	IC50 (read-out: IC50)	IC50 (read-out: pIC50 (converted))
CC(=O)c1c(O)c(C=O)c(O)c2c1O[C@]1(CC2)[C@@H]2CC[C@@H](C2)C1(C)C	4.47 µM	5.22 µM
CC(C)CC(=O)c1c(O)c2c(c(C(=O)CC(C)C)c1O)O[C@]1(CC2)[C@@H]2CC[C@@H](C2)C1(C)C	> 40 µg/mL	–
CC(C)C[C@H]1C[C@@]2(CC[C@H]3C[C@@H]2C3(C)C)Oc2c(C=O)c(O)c(C=O)c(O)c21	5.17 µM	5.18 µM
CC(C)C[C@@H]1C[C@@]2(CC[C@H]3C[C@@H]2C3(C)C)Oc2c(C=O)c(O)c(C=O)c(O)c21	4.14 µM	4.14 µM
CC(=O)c1c(O)c(C=O)c(O)c2c1O[C@@]1(C)[C@@H](C2)C[C@H]2C[C@@H]1C2(C)C	4.94 µM	4.93 µM
CC1(C)[C@H]2C[C@@H]3Cc4c(O)c(C=O)c(O)c(C=O)c4O[C@]3(C)[C@@H]1C2	7.26 µM	7.26 µM
CC(=O)c1c(O)c(C=O)c2c(c1O)CC[C@@]1(CC[C@H]3C[C@@H]1C3(C)C)O2	4.65 µM	4.65 µM
CC(=O)c1c(O)c(C=O)c(O)c2c1O[C@@]1(CC2)CC[C@H]2C[C@@H]1C2(C)C	4.65 µM	4.65 µM
CC1(C)[C@H]2CC[C@@]3(CCc4c(O)c(C=O)c(O)c(C=O)c4O3)[C@@H]1C2	6.36 µM	6.35 µM
CC(C)CC(=O)c1c(O)c2c(c(C(=O)CC(C)C)c1O)O[C@@]1(CC2)CC[C@H]2C[C@@H]1C2(C)C	> 40 µg/mL	–
CC(=O)c1c(O)c(C=O)c(O)c2c1O[C@]1(C)C[C@@H]3[C@H](C[C@@H]1C2)C3(C)C	4.07 µM	4.06 µM
CC1(C)[C@@H]2C[C@@]3(C)Oc4c(C=O)c(O)c(C=O)c(O)c4C[C@H]3C[C@@H]21	5.75 µM	5.75 µM
CC(C)CC(=O)c1c(O)c(C=O)c(O)c2c1O[C@]1(CC2)[C@@H]2CC[C@@H](C2)C1(C)C	4.07 µM	3.62 µM
CC1(C)[C@H]2[C@@H]1CC[C@@H]1Cc3c(O)c(C=O)c(O)c(C=O)c3O[C@@]12C	5.17 µM	6.05 µM
CC(C)CC(=O)c1c(O)c2c(c(C(=O)CC(C)C)c1O)O[C@]1(C)C[C@@H]3[C@H](C[C@@H]1C2)C3(C)C	> 40 µg/mL	–
CC(C)CC(=O)c1c(O)c(C=O)c(O)c2c1O[C@@]1(CCO)[C@@H](C2)C[C@H]2C[C@@H]1C2(C)C	7.68 µM	7.69 µM
CC(C)CC(=O)c1c(O)c2c(c(C(=O)CC(C)C)c1O)O[C@@]1(CO)[C@@H](C2)C[C@H]2C[C@@H]1C2(C)C	6.93 µM	6.93 µM
CC1(C)[C@H]2C[C@@H]3Cc4c(O)c(C=O)c(O)c(C=O)c4O[C@]3(CO)[C@@H]1C2	> 40 µg/mL	–
CC(C)CC(=O)c1c(O)c(C=O)c2c(c1O)C[C@H]1C[C@H]3C[C@H](C3(C)C)[C@@]1(CO)O2	4.47 µM	4.48 µM
CC1(C)[C@H]2C[C@@H]3Cc4c(O)c(C=O)c(O)c(C=O)c4O[C@]3(CCO)[C@@H]1C2	6.1 µM	6.11 µM
CC(C)CC(=O)c1c(O)c2c(c(C(=O)CC(C)C)c1O)O[C@@]1(C)[C@H](CC[C@H]3[C@@H]1C3(C)C)C2	> 40 µg/mL	–
CC(C)CC(=O)c1c(O)c(C=O)c(O)c2c1O[C@@]1(CO)[C@@H](C2)C[C@H]2C[C@@H]1C2(C)C	7.45 µM	7.45 µM
CC(C)CC(=O)c1c(O)c2c(c(C(=O)CC(C)C)c1O)O[C@@]1(CCO)[C@@H](C2)C[C@H]2C[C@@H]1C2(C)C	> 40 µg/mL	–
CC(C)CC(=O)c1c(O)c2c(c(C(=O)CC(C)C)c1O)O[C@@]1(C)[C@@H](C2)C[C@H]2C[C@@H]1C2(C)C	> 40 µg/mL	–

Second part, the molecule after the results:

IC50 (read-out: IC50)	IC50 (read-out: pIC50 (converted))	SMILES
4.07 µM	4.24 µM	CC1(C)[C@H]2CC[C@H](C2)[C@]12CCc1c(O)c(C=O)c(O)c(C=O)c1O2
2.73 µM	2.73 µM	CC(=O)c1c(O)c(C=O)c2c(c1O)C[C@H]1C[C@H]3C[C@H](C3(C)C)[C@@]1(C)O2
0.73 µM	0.724 µM	CC(C)CC(=O)c1c(O)c(C=O)c2c(c1O)C[C@H]1C[C@H]3[C@@H](C[C@@]1(C)O2)C3(C)C
1.6 µM	1.6 µM	CC(C)CC(=O)c1c(O)c(C=O)c(O)c2c1O[C@]1(C)C[C@@H]3[C@H](C[C@@H]1C2)C3(C)C
2.76 µM	2.76 µM	CC(=O)c1c(O)c(C=O)c2c(c1O)C[C@H]1C[C@H]3[C@@H](C[C@@]1(C)O2)C3(C)C
0.93 µM	0.931 µM	CC(C)CC(=O)c1c(O)c(C=O)c2c(c1O)CC[C@@]1(O2)[C@@H]2CC[C@@H](C2)C1(C)C
1.25 µM	1.25 µM	CC(=O)c1c(O)c(C=O)c2c(c1O)CC[C@@]1(O2)[C@@H]2CC[C@@H](C2)C1(C)C
0.62 µM	0.621 µM	CC(C)CC(=O)c1c(O)c(C=O)c2c(c1O)C[C@H]1CC[C@H]3[C@H](C3(C)C)[C@@]1(C)O2
2.28 µM	2.28 µM	CC(C)CC(=O)c1c(O)c(C=O)c2c(c1O)C[C@H]1C[C@H]3C[C@H](C3(C)C)[C@@]1(CCO)O2
1.42 µM	1.42 µM	CC(C)CC(=O)c1c(O)c(C=O)c(O)c2c1O[C@@]1(C)[C@H](CC[C@H]3[C@@H]1C3(C)C)C2
1.84 µM	1.84 µM	CC(C)CC(=O)c1c(O)c(C=O)c(O)c2c1O[C@@]1(C)[C@@H](C2)C[C@H]2C[C@@H]1C2(C)C [EUGLOBAL G1]
0.93 µM	0.931 µM	CC(C)CC(=O)c1c(O)c(C=O)c2c(c1O)C[C@H]1C[C@H]3C[C@H](C3(C)C)[C@@]1(C)O2 [EUGLOBAL G2]
1 µM	1.01 µM	CC(C)CC(=O)c1c(O)c(C=O)c2c(c1O)CC[C@@]1(CC[C@H]3C[C@@H]1C3(C)C)O2 [EUGLOBAL G3]
3.1 µM	3.1 µM	CC(C)CC(=O)c1c(O)c(C=O)c(O)c2c1O[C@@]1(CC2)CC[C@H]2C[C@@H]1C2(C)C [EUGLOBAL G4]
